According to BindingDB's records for patent US20230339981 (Gilead Sciences, 2023):

molecular target: GTPase KRas [G12D] (Homo sapiens, UniProt P01116, G12D); test: Biochemical Assay
Experimental: Compounds were tested for binding to GDP-loaded KRAS G12D in a 384-well assay format using a TR-FRET probe displacement assay in buffer consisting of 50 mM Hepes (pH 7.4), 150 mM NaCl, 5 mM MgCl2 and 0.005% Tween-20. […] Compounds were serially diluted (1:3) in DMSO. The LabCyte ECHO Acoustic dispenser system was used to pre-spot the assay plates (384-well Non-Binding Surface plates, Corning, Catalog #3824) with 50 nL of compound. The compounds were pre-incubated with 5 μL of 2× final enzyme concentration for 30 minutes before adding 5 μL of 2× final concentration of Eu-streptavidin and TR-FRET probe (10 μL final reaction volume). The plates were incubated at room temperature for 2 hours before measuring TR-FRET ratio on the Envision plate reader. IC50 values were defined as the compound concentration that causes a 50% decrease in TR-FRET ratio and were calculated using a sigmoidal dose-response model to generate curve fits.

Sequence of GTPase KRas [G12D] (P01116 whole entry G12D): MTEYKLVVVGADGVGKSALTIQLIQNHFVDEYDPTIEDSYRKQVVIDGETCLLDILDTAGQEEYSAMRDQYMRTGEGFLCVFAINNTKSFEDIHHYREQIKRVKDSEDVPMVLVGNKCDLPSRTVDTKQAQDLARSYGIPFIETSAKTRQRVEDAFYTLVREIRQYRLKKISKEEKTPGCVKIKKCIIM

| SMILES | IC50 |
| --- | --- |
| C#Cc1c(F)ccc2cc(O)cc(-c3nc4c5c(nc(OC[Si](C)(C)CN6CCOCC6)nc5c3F)N3C[C@H]5CC[C@H](N5)[C@H]3CO4)c12 [US20230339981, Example 29] | 560 nM |
| Fc1ccc2cccc(-c3nc4c5c(nc(OC[C@@]67CCCN6C[C@H](F)C7)nc5c3F)N3C[C@H]5CC[C@H](N5)[C@H]3CC4)c2c1OC(F)(F)F [US20230339981, Example 65] | 89 nM |
| C#Cc1c(F)ccc2cc(O)cc(-c3nc4c5c(nc(OC[C@@]67CCCN6C[C@H](F)C7)nc5c3F)N3C[C@H]5CC[C@H](N5)[C@@H]3CC4)c12 [US20230339981, Example 133] | 0.1 nM |
| C#Cc1c(F)ccc2cccc(-c3nc4c5c(nc(OC[C@@]67CCCN6C[C@@H](OC(F)(F)F)C7)nc5c3F)N3C[C@H]5CC[C@H](N5)[C@H]3CC4)c12 [US20230339981, Example 140] | 3.7 nM |
| C#Cc1c(F)ccc2cc(O)cc(-c3nc4c5c(nc(OCC6(CN7CCC8(CC7)CC8)CC6)nc5c3F)N3C[C@H]5CC[C@H](N5)[C@H]3CC4)c12 [US20230339981, Example 177] | 0.1 nM |
